This note sets out measurements from patent publication US11261175B2 (priority 2017, dated 2022).

Common to all, as to assay type: cell-based
Assay [1] has as its system HCV genotype 1b replicon with NS5A Y93H mutation. Description: Transiently transfected assay of genotype 1b resistance mutant RNA Y93H. Particulars: Hepatitis C virus, Huh-7.5.1, 72 h, read-out: HCV Mutation Y93H. A digest of the protocol:
(§1)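 Huh7.5.1 cells were electroporated with in vitro-transcribed, ScaI-linearized replicon RNAs carrying the Daclatasvir-resistance substitutions, then seeded 4 h later into DMEM with serially diluted compound. After 3 days, intracellular luciferase activity was read and normalized to mock-treated cells.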

The test system of assay [2] is HCV genotype 1b replicon with NS5A L31V mutation. Description: Transiently transfected assay of genotype 1b resistance mutant RNA L31V. As to conditions: Hepatitis C virus, Huh-7.5.1, 72 h, read-out: HCV Mutation L31V. The procedure, abridged:
as §1

In assay [3] the test system is HCV genotype 1b replicon with NS5A L31V+Y93H (double mutant). Description: Transiently transfected assay of genotype 1b resistance mutant RNA L31V+Y93H (double mutant). Particulars: Hepatitis C virus, Huh-7.5.1, 72 h, read-out: HCV Mutation L31V + Y93H. A digest of the protocol: as §1
Assay [4] concerns HCV replicon S52-Feo (genotype 3a). Kind of assay: Anti-HCV activity using HCV replicon S52-Feo (genotype 3a) in Huh 7.5.1 cells, luciferase readout. As to conditions: Hepatitis C virus, 72 h; Huh 7.5.1 cells with S52-Feo replicon, 3 days, firefly luciferase; read-out: HCV wt. GT-3a.
Assay [5] deals with HCV replicon NK5.1-Gluc (genotype 1b). Kind of assay: Anti-HCV activity using HCV replicon NK5.1-Gluc (genotype 1b) in Huh 7.5.1 cells, luciferase readout. As to conditions: Hepatitis C virus, 72 h; Huh 7.5.1 cells with NK5.1-Gluc replicon, 3 days, Gaussia luciferase; read-out: HCV wt. GT-1b. On the technique in general: Replicon systems follow genome replication, usually without infectious particles.

Assay [6] deals with JFH5a-Rluc-ad34 virus (HCV GT-2a). Kind of assay: Anti-HCV activity using HCVcc (JFH5a-Rluc-ad34 virus) in Huh 7.5.1 cells, Renilla luciferase readout. As to conditions: Hepatitis C virus, GT2A, Huh-7.5.1, 72 h, read-out: HCV wt. GT-2a. The procedure, abridged: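 Huh 7.5.1 cells were inoculated with JFH5a-Rluc-ad34, a JFH1-derived virus with adaptive E2/p7 mutations, for 4 h before serially diluted compound was added. Intracellular Renilla luciferase was read after three days and normalized to mock-treated controls.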

The structures appear in SMILES notation.

Regarding `CCCCC1(CCCC)c2cc(NC(=O)[C@@H]3C[C@@H](O)CN3C(=O)[C@H](NC(=O)OC)c3ccccc3)ccc2-c2ccc(NC(=O)[C@@H]3C[C@@H](O)CN3C(=O)[C@H](NC(=O)OC)c3ccccc3)cc21` [Example 29, dimethyl ((1R,1′R)-((3R,3′R,5S,5′S)-(((9,9-dibutyl-9H-fluorene-2,7-diyl)bis(azanediyl))bis(carbonyl))bis(3-hydroxypyrrolidine-5,1-diyl))bis(2-oxo-1-phenylethane-2,1-diyl))dicarbamate], the EC50 in assay [1] was in the range of 10 to 100 pM; in assay [2] it was 10 to 100 pM; in assay [3], 10 to 100 pM; in assay [4], 10 to 100 pM; in assay [5], 1 to 10 pM; in assay [6], 100 to 1000 pM.

As for `CCCC1(CCC)c2cc(NC(=O)[C@@H]3CCCN3C(=O)[C@H](NC(=O)OC)c3ccccc3)ccc2-c2ccc(-c3cnc([C@@H]4CCCN4C(=O)[C@@H](NC(=O)OC)C(C)C)[nH]3)cc21` [Example 3, methyl ((S)-1-((S)-2-(5-(9,9-dipropyl-7-((S)-1-((R)-2-((methoxycarbonyl)amino)-2-phenylacetyl)pyrrolidine-2-carboxyamido)-9H-fluorene-2-yl)-1H-imidazole-2-yl)pyrrolidine-1-yl)-3-methyl-1-oxobutane-2-yl)carbamate], the EC50 fell in the range of 10 to 100 pM in assay [1]; 10 to 100 pM in assay [2]; 1000 to 100000 pM in assay [3]; 10 to 100 pM in assay [4]; 10 to 100 pM in assay [5]; 10 to 100 pM in assay [6].

`CCCCC1(CCCC)c2cc(NC(=O)[C@@H]3CCCN3C(=O)[C@H](NC(=O)OC)c3ccccc3)ccc2-c2ccc(-c3cnc([C@@H]4C[C@H](COC)CN4C(=O)[C@@H](NC(=O)OC)C(C)C)[nH]3)cc21` [Example 41, methyl ((S)-1-((2S,4S)-2-(5-(9,9-dibutyl-7-((S)-1-((R)-2-((methoxycarbonyl)amino)-2-phenylacetyl)pyrrolidine-2-carboxyamido)-9H-fluorene-2-yl)-1H-imidazole-2-yl)-4-(methoxymethyl)pyrrolidine-1-yl)-3-methyl-1-oxobutane-2-yl)carbamate]: the EC50 in assay [1] lay in the range of 10 to 100 pM; in assay [2], 1 to 10 pM; in assay [3], 1000 to 100000 pM; in assay [4], 100 to 1000 pM; in assay [5], 10 to 100 pM; in assay [6] it was 10 to 100 pM.

For `CCCCCC1(CCCCC)c2cc(NC(=O)[C@@H]3CC(=O)CN3C(=O)[C@H](NC(=O)OC)c3ccccc3)ccc2-c2ccc(NC(=O)[C@@H]3CC(=O)CN3C(=O)[C@H](NC(=O)OC)c3ccccc3)cc21` [Example 17, dimethyl ((1R,1′R)-((5S,5′S)-(((9,9-dipentyl-9H-fluorene-2,7-diyl)bis(azanediyl))bis(carbonyl))bis(3-oxopyrrolidine-5,1-diyl))bis(2-oxo-1-phenylethane-2,1-diyl))dicarbamate], the EC50 in assay [1] was 100 to 1000 pM; in assay [2] it was 1 to 10 pM; in assay [3], 1000 to 100000 pM; in assay [4] it was 10 to 100 pM; in assay [5], 1 to 10 pM; in assay [6] it was 1000 to 100000 pM.

Turning to `CCCCCC1(CCCCC)c2cc(NC(=O)[C@@H]3CCCN3C(=O)[C@H](NC(=O)OC)c3ccccc3)ccc2-c2ccc(NC(=O)[C@@H]3CCCN3C(=O)[C@H](NC(=O)OC)c3ccccc3)cc21` [Example 11, dimethyl ((1R,1′R)-((2S,2′S)-(((9,9-dipentyl-9H-fluorene-2,7-diyl)bis(azanediyl))bis(carbonyl))bis(pyrrolidine-2,1-diyl))bis(2-oxo-1-phenylethane-2,1-diyl))dicarbamate], the EC50 in assay [1] lay within 1000 to 100000 pM; in assay [2], 1 to 10 pM; in assay [3], 1000 to 100000 pM; in assay [4], 10 to 100 pM; in assay [5], 1 to 10 pM; in assay [6], 1000 to 100000 pM.
